Data published in the NIST ThermoML archive (doi:10.1016/j.fluid.2014.09.014).
Numbers after ± are expanded uncertainties.

Assays:
[1] = 298.15 K; 101.33 kPa; Liquid; mechanical oscillator
[2] = refractive index (Na D-line) (dimensionless); details: 298.15 K; 101.33 kPa; Liquid; Standard Abbe refractometry
[3] = Boiling temperature at pressure P; details: Liquid, Ebulliometric method (Recirculating still)
[4] = xn = mol fraction of the nth substance listed; details: 101 kPa, Liquid, mechanical oscillator
[5] = refractive index (other wavelength) (dimensionless); xn = mol fraction of the nth substance listed; details: 101 kPa, Liquid, Standard Abbe refractometry

CC(C)OC(C)C [diisopropyl ether]
Details | mass density [kg/m3] | refractive index
[1] | 718.3 ± 0.24 | –
[2] | – | 1.3653 ± 0.0005

CO [methanol]
Details | mass density [kg/m3] | refractive index
[1] | 786.62 ± 0.12 | –
[2] | – | 1.32666 ± 0.00033

[3]
Details | Boiling temperature at pressure P [°C]
26.55 kPa | 33.76 ± 0.29
29.52 kPa | 36.0 ± 0.31
32.46 kPa | 37.94 ± 0.31
35.65 kPa | 39.93 ± 0.32
37.8 kPa | 41.19 ± 0.32
40.63 kPa | 42.76 ± 0.33
43.23 kPa | 44.12 ± 0.33
44.63 kPa | 44.83 ± 0.32
48.35 kPa | 46.62 ± 0.34
51.4 kPa | 48.00 ± 0.34
53.97 kPa | 49.11 ± 0.34
56.89 kPa | 50.32 ± 0.34
59.55 kPa | 51.38 ± 0.34
62.25 kPa | 52.41 ± 0.35
64.9 kPa | 53.39 ± 0.35
67.5 kPa | 54.32 ± 0.35
70.07 kPa | 55.21 ± 0.35
72.95 kPa | 56.17 ± 0.35
75.66 kPa | 57.1 ± 0.36
78.35 kPa | 57.90 ± 0.36
81.05 kPa | 58.72 ± 0.36
83.76 kPa | 59.52 ± 0.36
86.46 kPa | 60.30 ± 0.35
96.35 kPa | 63.00 ± 0.39

CO [methanol] + CC(C)OC(C)C
[4], x1 = 1
Details | mass density [kg/m3]
293.15 K | 791.62 ± 0.21
298.15 K | 786.62 ± 0.21
303.15 K | 781.54 ± 0.21
308.15 K | 776.5 ± 0.21
313.15 K | 771.53 ± 0.21
318.15 K | 766.6 ± 0.21

refractive index, [5], x1 = 1
Details | Wavelength=40.47 nm | Wavelength=435.8 nm | Wavelength=486.1 nm | Wavelength=546.1 nm | Wavelength=587.6 nm | Wavelength=589.3 nm | Wavelength=632.8 nm | Wavelength=644 nm | Wavelength=706.5 nm
293.15 K | 1.33767 ± 0.00032 | 1.3353 ± 0.00032 | 1.3324 ± 0.00032 | 1.32991 ± 0.00031 | 1.32869 ± 0.00031 | 1.32864 ± 0.00031 | 1.32754 ± 0.00031 | 1.3273 ± 0.00031 | 1.3261 ± 0.00031
298.15 K | 1.33564 ± 0.00032 | 1.3333 ± 0.00032 | 1.3304 ± 0.00032 | 1.328 ± 0.00031 | 1.32671 ± 0.00031 | 1.32666 ± 0.00031 | 1.32558 ± 0.00031 | 1.32535 ± 0.00031 | 1.32415 ± 0.00031
303.15 K | 1.33357 ± 0.00032 | 1.33126 ± 0.00032 | 1.32839 ± 0.00032 | 1.32597 ± 0.00032 | 1.32471 ± 0.00031 | 1.32467 ± 0.00031 | 1.3236 ± 0.00031 | 1.32336 ± 0.00031 | 1.32219 ± 0.00031
308.15 K | 1.33153 ± 0.00032 | 1.32926 ± 0.00032 | 1.32637 ± 0.00032 | 1.32397 ± 0.00032 | 1.32274 ± 0.00031 | 1.32269 ± 0.00031 | 1.32163 ± 0.00031 | 1.32138 ± 0.00031 | 1.32021 ± 0.00031
313.15 K | 1.32947 ± 0.00032 | 1.32722 ± 0.00032 | 1.32434 ± 0.00032 | 1.32196 ± 0.00032 | 1.32073 ± 0.00032 | 1.32068 ± 0.00031 | 1.31965 ± 0.00031 | 1.31942 ± 0.00031 | 1.31825 ± 0.00031
318.15 K | 1.32742 ± 0.00032 | 1.32518 ± 0.00032 | 1.32234 ± 0.00032 | 1.31993 ± 0.00032 | 1.31874 ± 0.00031 | 1.3187 ± 0.00031 | 1.31768 ± 0.00031 | 1.31744 ± 0.00031 | 1.31631 ± 0.00031

CC(C)O [propan-2-ol]
Details | mass density [kg/m3] | refractive index
[1] | 782.45 ± 0.11 | –
[2] | – | 1.37522 ± 0.00033

[3]
Details | Boiling temperature at pressure P [°C]
14.02 kPa | 39.48 ± 0.27
16.09 kPa | 42.07 ± 0.28
18.94 kPa | 45.20 ± 0.29
21.65 kPa | 47.82 ± 0.3
24.56 kPa | 50.31 ± 0.3
26.99 kPa | 52.21 ± 0.3
29.69 kPa | 54.2 ± 0.31
32.53 kPa | 56.04 ± 0.31
36.08 kPa | 58.20 ± 0.32
38.28 kPa | 59.5 ± 0.32
40.49 kPa | 60.7 ± 0.32
43.63 kPa | 62.27 ± 0.33
45.88 kPa | 63.37 ± 0.32
48.77 kPa | 64.71 ± 0.33
51.47 kPa | 65.91 ± 0.33
54.24 kPa | 67.08 ± 0.33
56.82 kPa | 68.12 ± 0.33
59.59 kPa | 69.20 ± 0.34
62.14 kPa | 70.2 ± 0.34
65.69 kPa | 71.43 ± 0.35
67.6 kPa | 72.09 ± 0.34
70.27 kPa | 72.98 ± 0.34
73.16 kPa | 73.93 ± 0.35
75.65 kPa | 74.72 ± 0.35
78.35 kPa | 75.6 ± 0.35
81.05 kPa | 76.36 ± 0.35
83.8 kPa | 77.16 ± 0.36
86.4 kPa | 77.90 ± 0.34
96.28 kPa | 80.54 ± 0.38

CC(C)O [propan-2-ol] + CC(C)OC(C)C
[4], x2 = 0
Details | mass density [kg/m3]
293.15 K | 786.91 ± 0.21
298.15 K | 782.45 ± 0.21
303.15 K | 777.84 ± 0.21
308.15 K | 773.13 ± 0.21
313.15 K | 768.47 ± 0.21
318.15 K | 763.79 ± 0.21

refractive index, [5], x2 = 0
Details | Wavelength=404.7 nm | Wavelength=435.8 nm | Wavelength=486.1 nm | Wavelength=546.1 nm | Wavelength=587.6 nm | Wavelength=589.3 nm | Wavelength=632.8 nm | Wavelength=644 nm | Wavelength=706.5 nm
293.5 K | 1.3883 ± 0.00032 | 1.38525 ± 0.00032 | 1.38179 ± 0.00032 | 1.37892 ± 0.00032 | 1.37742 ± 0.00032 | 1.37736 ± 0.00032 | 1.37605 ± 0.00032 | 1.37574 ± 0.00032 | 1.37424 ± 0.00032
298.15 K | 1.3861 ± 0.00032 | 1.38307 ± 0.00032 | 1.37963 ± 0.00032 | 1.37678 ± 0.00032 | 1.37527 ± 0.00032 | 1.37522 ± 0.00032 | 1.37392 ± 0.00032 | 1.37361 ± 0.00032 | 1.37214 ± 0.00032
303.15 K | 1.38379 ± 0.00032 | 1.38078 ± 0.00032 | 1.37738 ± 0.00032 | 1.37453 ± 0.00032 | 1.37304 ± 0.00032 | 1.37299 ± 0.00032 | 1.3717 ± 0.00032 | 1.3714 ± 0.00032 | 1.36993 ± 0.00032
308.15 K | 1.38152 ± 0.00032 | 1.37851 ± 0.00032 | 1.37512 ± 0.00032 | 1.3723 ± 0.00032 | 1.3708 ± 0.00032 | 1.37075 ± 0.00032 | 1.36946 ± 0.00032 | 1.36917 ± 0.00032 | 1.36772 ± 0.00032
313.15 K | 1.37921 ± 0.00032 | 1.37624 ± 0.00032 | 1.37288 ± 0.00032 | 1.37005 ± 0.00032 | 1.36857 ± 0.00032 | 1.36852 ± 0.00032 | 1.36726 ± 0.00032 | 1.36696 ± 0.00032 | 1.36551 ± 0.00032
318.15 K | 1.37691 ± 0.00032 | 1.37397 ± 0.00032 | 1.37061 ± 0.00032 | 1.36782 ± 0.00032 | 1.36635 ± 0.00032 | 1.36629 ± 0.00032 | 1.36502 ± 0.00032 | 1.36473 ± 0.00032 | 1.36329 ± 0.00032
